Measured values published in patent US11292796B2 (SIGNAL PHARMACEUTICALS, LLC, priority 2008, dated 2022).
pIC50: −log10 of the molar value.

Molecular target: T1, mTOR (Homo sapiens, UniProt P42345)
T1 construct: purchased Invitrogen PR8683A
Test: mTOR HTR-FRET assay
Type: biochemical
Settings: read-out: Act. Level (IC50 in mTor HTR-FRET assay)
In short: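 Test compounds, taken from 10 mM DMSO stocks and diluted, were mixed with mTOR enzyme (0.200 μg/mL) in Tris buffer pH 7.4 with 100 mM NaCl, 0.1% Tween-20 and 1 mM DTT. ATP/substrate addition initiated the reaction, alongside compound-free controls.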

T1 sequence (P42345 1360-2549 limits assumed): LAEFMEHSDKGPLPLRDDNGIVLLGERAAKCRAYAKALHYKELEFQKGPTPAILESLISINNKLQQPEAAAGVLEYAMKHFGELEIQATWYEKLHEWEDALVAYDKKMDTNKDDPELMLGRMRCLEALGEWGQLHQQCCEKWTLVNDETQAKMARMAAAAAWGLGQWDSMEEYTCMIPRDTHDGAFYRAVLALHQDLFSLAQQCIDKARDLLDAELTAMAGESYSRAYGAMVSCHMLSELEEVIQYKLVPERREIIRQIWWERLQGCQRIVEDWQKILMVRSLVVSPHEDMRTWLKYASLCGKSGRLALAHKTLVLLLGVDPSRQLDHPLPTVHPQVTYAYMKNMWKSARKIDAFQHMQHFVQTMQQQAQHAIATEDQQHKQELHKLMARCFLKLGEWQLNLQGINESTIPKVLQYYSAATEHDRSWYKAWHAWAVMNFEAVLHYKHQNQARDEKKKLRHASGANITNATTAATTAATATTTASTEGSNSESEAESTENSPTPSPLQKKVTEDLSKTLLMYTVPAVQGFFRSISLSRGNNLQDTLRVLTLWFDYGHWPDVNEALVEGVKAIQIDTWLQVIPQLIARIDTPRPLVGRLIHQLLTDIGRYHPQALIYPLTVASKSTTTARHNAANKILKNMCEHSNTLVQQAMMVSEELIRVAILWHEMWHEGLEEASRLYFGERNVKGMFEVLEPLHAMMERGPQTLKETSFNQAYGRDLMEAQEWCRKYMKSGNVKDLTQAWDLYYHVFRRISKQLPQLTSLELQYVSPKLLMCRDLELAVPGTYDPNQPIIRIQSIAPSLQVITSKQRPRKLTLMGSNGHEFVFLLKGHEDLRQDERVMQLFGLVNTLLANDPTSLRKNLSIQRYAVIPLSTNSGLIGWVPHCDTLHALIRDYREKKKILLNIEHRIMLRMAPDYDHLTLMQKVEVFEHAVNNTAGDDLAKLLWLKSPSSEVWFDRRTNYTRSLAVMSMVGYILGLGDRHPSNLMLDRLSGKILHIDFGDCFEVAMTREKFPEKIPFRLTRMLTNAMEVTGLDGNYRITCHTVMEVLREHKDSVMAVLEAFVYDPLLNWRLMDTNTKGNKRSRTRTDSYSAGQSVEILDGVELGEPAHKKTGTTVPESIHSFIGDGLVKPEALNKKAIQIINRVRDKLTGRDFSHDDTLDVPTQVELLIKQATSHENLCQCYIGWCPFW

| SMILES | pIC50 |
| --- | --- |
| CCN1CC(=O)Nc2ncc(-c3ccc(-c4nc[nH]n4)nc3)nc21 [Example 22, 6-(6-(1H-1,2,4-triazol-3-yl)pyridin-3-yl)-4-ethyl-3,4-dihydropyrazino[2,3-b]pyrazin-2(1H)-one] | 6.60 to 11.30 |
| Cc1cc(-c2nnc[nH]2)ccc1-c1cnc2c(n1)N(CCC1CCOCC1)C(C)C(=O)N2 (centres unmarked) [Example 107, 3-methyl-6-(2-methyl-4-(4H-1,2,4-triazol-3-yl)phenyl)-4-(2-(tetrahydro-2H-pyran-4-yl)ethyl)-3,4-dihydropyrazino[2,3-b]pyrazin-2(1H)-one] | 6.60 to 11.30 |
| Cc1c(-c2cnc3c(n2)N(CCC2CCOCC2)CC(=O)N3)ccc(-c2nnc[nH]2)c1F [Example 48, 6-(3-fluoro-2-methyl-4-(4H-1,2,4-triazol-3-yl)phenyl)-4-(2-(tetrahydro-2H-pyran-4-yl)ethyl)-3,4-dihydropyrazino[2,3-b]pyrazin-2(1H)-one] | 6.60 to 11.30 |
| O=C1CNc2ncc(-c3ccc(-c4nnc[nH]4)c(F)c3)nc2N1CCC1CCOCC1 [Example 243, 7-(3-fluoro-4-(4H-1,2,4-triazol-3-yl)phenyl)-1-(2-(tetrahydro-2H-pyran-4-yl)ethyl)-3,4-dihydropyrazino[2,3-b]pyrazin-2(1H)-one] | 6.60 to 11.30 |
| O=C1CN(C2CCOCC2)c2nc(-c3ccc(-c4nc[nH]n4)nc3)cnc2N1 [Example 21, 6-(6-(1H-1,2,4-triazol-3-yl)pyridin-3-yl)-4-(tetrahydro-2H-pyran-4-yl)-3,4-dihydropyrazino[2,3-b]pyrazin-2(1H)-one] | 6.60 to 11.30 |
| O=C1Nc2ncc(-c3ccc(-c4nnc[nH]4)cc3)nc2N2CCOCC12 (centres unmarked) [Example 119, 9-(4-(4H-1,2,4-triazol-3-yl)phenyl)-6,11,4a-trihydromorpholino[4,3-e]pyrazino[2,3-b]pyrazin-5-one] | 6.60 to 11.30 |
| COCCN1C(=O)CNc2ncc(-c3ccc(-c4cc[nH]n4)cc3)nc21 [Example 186, 7-(4-(1H-pyrazol-3-yl)phenyl)-1-(2-methoxyethyl)-3,4-dihydropyrazino[2,3-b]pyrazin-2(1H)-one] | 6.60 to 11.30 |
| CO[C@@H]1CC[C@@H](N2C(=O)CNc3ncc(-c4ccc(-c5nnc[nH]5)nc4C)nc32)C1 [Example 227, 1-((1R,3R)-3-methoxycyclopentyl)-7-(2-methyl-6-(4H-1,2,4-triazol-3-yl)pyridin-3-yl)-3,4-dihydropyrazino[2,3-b]pyrazin-2(1H)-one] | 6.60 to 11.30 |
| CO[C@H]1CC[C@H](CN2CC(=O)Nc3ncc(-c4ccc(-c5nc[nH]n5)nc4)nc32)CC1 [Example 5] | 6.60 to 11.30 |
| CO[C@H]1CC[C@H](N2CC(=O)Nc3ncc(-c4ccc(-c5nc[nH]n5)nc4)nc32)CC1 [Example 12] | 6.60 to 11.30 |
| Cc1cc(-c2cnc3c(n2)N(CC2CCOCC2)C(=O)CN3)cc2[nH]c(=O)[nH]c12 [Example 238, 7-(7-methyl-2-oxo-2,3-dihydro-1H-benzo[d]imidazol-5-yl)-1-((tetrahydro-2H-pyran-4-yl)methyl)-3,4-dihydropyrazino[2,3-b]pyrazin-2(1H)-one] | 6.00 to 6.30 |
| Cc1nc(-c2nnc[nH]2)ccc1-c1cnc2c(n1)N1CCOCC1C(=O)N2 (centres unmarked) [Example 100, 9-(6-(4H-1,2,4-triazol-3-yl)-2-methyl-3-pyridyl)-6,11,4a-trihydromorpholino[4,3-e]pyrazino[2,3-b]pyrazin-5-one] | 6.30 to 6.60 |
| CO[C@H]1CC[C@@H](N2C(=O)CNc3ncc(-c4ccc(-c5nc[nH]n5)nc4)nc32)CC1 [Example 151, 7-(6-(1H-1,2,4-triazol-3-yl)pyridin-3-yl)-1-(cis-4-methoxycyclohexyl)-3,4-dihydropyrazino[2,3-b]pyrazin-2(1H)-one] | 6.60 to 11.30 |
| O=C1CN(CCC2CCOCC2)c2nc(-c3ccc(-c4nnc[nH]4)c(F)c3)cnc2N1 [Example 60, 6-(3-fluoro-4-(4H-1,2,4-triazol-3-yl)phenyl)-4-(2-(tetrahydro-2H-pyran-4-yl)ethyl)-3,4-dihydropyrazino[2,3-b]pyrazin-2(1H)-one] | 6.60 to 11.30 |
| CO[C@H]1CC[C@H](CN2CC(=O)Nc3ncc(-c4ccc(C(C)(C)O)nc4)nc32)C1 [Example 53, 6-(6-(2-hydroxypropan-2-yl)pyridin-3-yl)-4-(((1S,3S)-3-methoxycyclopentyl)methyl)-3,4-dihydropyrazino[2,3-b]pyrazin-2(1H)-one] | 6.60 to 11.30 |
| COCCN1C(=O)CNc2ncc(-c3ccc(-c4nc[nH]n4)nc3)nc21 [Example 163, 7-(6-(1H-1,2,4-triazol-3-yl)pyridin-3-yl)-1-(2-methoxyethyl)-3,4-dihydropyrazino[2,3-b]pyrazin-2(1H)-one] | 6.60 to 11.30 |
| COCCN1C(=O)CNc2ncc(-c3cnc(-c4nc[nH]n4)cc3C)nc21 [Example 240, 1-(2-methoxyethyl)-7-(4-methyl-6-(1H-1,2,4-triazol-3-yl)pyridin-3-yl)-3,4-dihydropyrazino[2,3-b]pyrazin-2(1H)-one] | 6.60 to 11.30 |
